Where a name gives a salt, the structure may show the parent alone.
Legend:
[1] = target: T1, human neutrophil elastase (Homo sapiens, UniProt P08246); experiment: In vitro assay of human neutrophil elastase (HNE); format: biochemical; settings: 118 nM purified human neutrophil elastase, pH 8.6, 15 min incubation at 30° C., MeO-succinyl-alanyl-alanyl-prolyl-valyl-p-nitroanilide substrate; read-out: HNE IC50
T1 sequence (P08246 30-267): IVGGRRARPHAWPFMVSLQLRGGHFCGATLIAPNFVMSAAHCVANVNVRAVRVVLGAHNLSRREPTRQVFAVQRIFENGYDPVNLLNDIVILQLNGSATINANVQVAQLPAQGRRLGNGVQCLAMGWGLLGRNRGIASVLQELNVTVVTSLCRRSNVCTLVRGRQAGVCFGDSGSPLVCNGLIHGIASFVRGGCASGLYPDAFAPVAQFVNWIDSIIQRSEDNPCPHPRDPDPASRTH
How it was run: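 Residual activity was taken as the 10 min rate of absorbance rise at 405 nm after adding 0.6 mM MeO-succinyl-AAPV-p-nitroanilide. Curve fitting of activity against concentration gave IC50.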

Intracellular elastase = experiment: Oral in vivo model using IL-8 induced lung infiltrates for the assessment of intracellular elastase inhibition (hamster test); settings: effective dose of less than 40 mg/kg, IL-8 intratracheal
How it was run: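 Fasted adult hamsters (n=4) given compound orally in water, with intratracheal 1 ug recombinant human IL-8; sacrificed 6 h later. Neutrophils from lung lavage and femoral bone marrow sonicated, granules disrupted, and elastase measured, with myeloperoxidase used to normalise for neutrophil recovery.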

Row | Structure (SMILES) | IC50 [1] [nM] | duration of effect (Intracellular elastase)
1 | CCN(CC)Cc1ccc(C(=O)N2CC[C@H]3[C@H]2[C@@H](C(C)C)C(=O)N3S(C)(=O)=O)cc1.Cl (relative stereo) [Example 182, rel-(3R,3aR,6aS)-4-(4-Diethylaminomethyl-benzoyl)-3-isopropyl-1-methanesulfonyl-hexahydro-pyrrolo[3,2-b]pyrrol-2-one hydrochloride] | 43 | at least 6 hours
2 | COC(=O)[C@@H]1CCCN1Cc1ccc(C(=O)N2CC[C@H]3[C@H]2[C@@H](C(C)C)C(=O)N3S(C)(=O)=O)cc1 (relative stereo) [Example 183, 1-[4-(rel-6R-Isopropyl-4-methanesulfonyl-5-oxo-hexahydro-(3aS,6aR)-pyrrolo[3,2-b]pyrrole-1-carbonyl)-benzyl]-pyrrolidine-2S-carboxylic acid methyl ester hydrochloride] | 46 | at least 6 hours
3 | CC(C)[C@H]1C(=O)N(S(C)(=O)=O)[C@H]2CCN(C(=O)c3ccc(CN4CCC5CCCCC5C4)cc3)[C@H]12.Cl (relative stereo) [Example 184, rel-(3R,3aR,6aS)-3-Isopropyl-1-methanesulfonyl-4-[4-(octahydro-isoquinolin-2-ylmethyl)-benzoyl]-hexahydro-pyrrolo[3,2-b]pyrrol-2-one hydrochloride] | 12 | at least 6 hours
4 | CC(=O)N1CCN(Cc2ccc(C(=O)N3CC[C@H]4[C@H]3[C@@H](C(C)C)C(=O)N4S(C)(=O)=O)cc2)CC1 (relative stereo) [Example 185, rel-(3R,3aR,6aS)-4-[4-Acetyl-piperazin-1-ylmethyl)-benzoyl]-3-isopropyl-1-methanesulfonyl-hexahydro-pyrrolo[3,2-b]pyrrol-2-one hydrochloride] | 33 | at least 6 hours
5 | CC(C)[C@H]1C(=O)N(S(C)(=O)=O)[C@H]2CCN(C(=O)c3ccc(CN4C(C)CCC4C)cc3)[C@H]12.Cl (relative stereo) [Example 186, rel-(3R,3aR,6aS)-4-[4-(2,5-Dimethyl-pyrrolidin-1-ylmethyl)-benzoyl]-3-isopropyl-1-methanesulfonyl-hexahydro-pyrrolo[3,2-b]pyrrol-2-one hydrochloride] | 53 | at least 6 hours
6 | CC(C)[C@H]1C(=O)N(S(C)(=O)=O)[C@H]2CCN(C(=O)c3cccc(CNC4CC4)c3)[C@H]12.Cl (relative stereo) [Example 190, rel-(3R,3aR,6aS)-4-(3-Cyclopropylaminomethyl-benzoyl)-3-isopropyl-1-methanesulfonyl-hexahydro-pyrrolo[3,2-b]pyrrol-2-one hydrochloride] | 24 | at least 6 hours
7 | CC(C)[C@H]1C(=O)N(S(C)(=O)=O)[C@H]2CCN(C(=O)c3ccc(CN4C(C)CCCC4C)cc3)[C@H]12.Cl (relative stereo) [Example 200, rel-(3R,3aR,6aS)-4-[4-(2,6-Dimethyl-piperidin-1-ylmethyl)-benzoyl]-3-isopropyl-1-methanesulfonyl-hexahydropyrrolo[3,2-b]pyrrol-2-one hydrochloride] | 53 | at least 6 hours
8 | CC(C)[C@H]1C(=O)N(S(C)(=O)=O)[C@H]2CCN(C(=O)c3ccc(CN(C(C)C)C(C)C)cc3)[C@H]12 (relative stereo) [Example 201, rel-(3R,3aR,6aS)-4-{4-(Diisopropylamino)-methy]benzoyl}3-isopropyl-1-methanesulfonyl-hexahydro-pyrrolo[3,2-b]pyrrol-2-one hydrochloride] | 46 | at least 6 hours
9 | CC(C)[C@H]1C(=O)N(S(C)(=O)=O)[C@H]2CCN(C(=O)c3ccco3)[C@H]12 (relative stereo) [Example 248, rel-(3R,3aR,6aS)-4-(Furan-2-carbonyl)-3-isopropyl-1-methanesulfonyl-hexahydro-pyrrolo[3,2-b]pyrrol-2-one] | 60 | at least 6 hours
10 | CC(C)[C@H]1C(=O)N(S(C)(=O)=O)[C@H]2CCN(C(=O)c3cccs3)[C@H]12 (relative stereo) [Example 249, rel-(3R,3aR,6aS)-3-Isopropyl-1-methanesulfonyl-4-(thiophene-2-carbonyl)-hexahydro-pyrrolo[3,2-b]pyrrol-2-one] | 68 | at least 6 hours
11 | CC(C)[C@H]1C(=O)N(S(C)(=O)=O)[C@H]2CCN(C(=O)c3cccc(CN(C)C)c3)[C@H]12 (relative stereo) [Example 253, rel-(3R3aR,6aS)-4-(3-Dimethylaminomethyl-benzoyl)-3-isopropyl-1-methanesulfonyl-hexahydro-pyrrolo[3,2-b]pyrrol-2-one hydrochloride] | 76 | at least 6 hours
12 | CCC[C@H]1C(=O)N(S(C)(=O)=O)[C@H]2CCN(C(=O)/C=C/CN3CCN(C)CC3)[C@H]12.Cl.Cl (relative stereo) [Example 254, rel-(3R,3aR,6aS)-1-Methanesulfonyl-4-[4-(4-methyl-piperazin-1-yl)-but-2E-enoyl]-3-propyl-hexahydro-pyrrolo[3,2-b]pyrrol-2-one dihydrochloride] | 97 | at least 6 hours
13 | CCC[C@@H]1C(=O)N(S(C)(=O)=O)[C@@H]2CCN(C(=O)CCCCCN3CCCCCC3)[C@@H]12 [Example 117, hydrochloride] | 27 | at least 6 hours

Continued, in another order:

Row | IC50 [1] [nM] | Structure (SMILES) | duration of effect (Intracellular elastase)
14 | 43 | CC(C)[C@H]1C(=O)N(S(C)(=O)=O)[C@H]2CCN(C(=O)c3ccc(CN4CCC(C(N)=O)CC4)cc3)[C@H]12.Cl (relative stereo) [Example 187, rel-1-[4-(6R-Isopropyl-4-methanesulfonyl-5-oxo-hexahydro-(3aS,6aR)-pyrrolo[3,2-b]pyrrole-1-carbonyl)-benzyl]-piperidine-4-carboxylic acid amide hydrochloride] | at least 6 hours
15 | 67 | CC(C)[C@H]1C(=O)N(S(C)(=O)=O)[C@H]2CCN(C(=O)c3ccc(CN4CCNCC4)cc3)[C@H]12.Cl.Cl (relative stereo) [Example 188, rel-(3R,3aR,6aS)-3-Isopropyl-1-methanesulfonyl-4-(4-piperazin-1-ylmethyl-benzoyl)-hexahydro-pyrrolo[3,2-b]pyrrol-2-one dihydrochloride] | at least 6 hours
16 | 62 | CC(C)[C@H]1C(=O)N(S(C)(=O)=O)[C@H]2CCN(C(=O)c3cccc(CN4CCN(C)CC4)c3)[C@H]12.Cl.Cl (relative stereo) [Example 189, rel-(3R,3aR,6aS)-3-Isopropyl-1-methanesulfonyl-4-[3-(4-methyl-piperazin-1-ylmethyl)-benzoyl]-hexahydro-pyrrolo[3,2-b]pyrrol-2-one dihydrochloride] | at least 6 hours
17 | 41 | CC(C)[C@H]1C(=O)N(S(C)(=O)=O)[C@H]2CCN(C(=O)c3cccc(CN4CCC(C(N)=O)CC4)c3)[C@H]12.Cl (relative stereo) [Example 191, rel-1-[3-(6R-Isopropyl-4-methanesulfonyl-5-oxo-hexahydro-(3aS,6aR)-pyrrolo[3,2-b]pyrrole-1-carbonyl)-benzyl]-piperidine-4-carboxylic acid amide hydrochloride] | at least 6 hours
18 | 61 | CC(C)[C@H]1C(=O)N(S(C)(=O)=O)[C@H]2CCN(C(=O)c3cccc(CN4CCCCC4)c3)[C@H]12 (relative stereo) [Example 192, rel-(3R,3aR,6aS)-3-Isopropyl-1-methanesulfonyl-4-(3-piperidin-1-ylmethyl-benzoyl)-hexahydro-pyrrolo]3,2-b]pyrrol-2-one hydrochloride] | at least 6 hours
19 | 50 | CC(C)[C@H]1C(=O)N(S(C)(=O)=O)[C@H]2CCN(C(=O)c3cccc(CN4CCCC4)c3)[C@H]12 (relative stereo) [Example 193, rel-(3R,3aR,6aS)-3-Isopropyl-1-methanesulfonyl-4-(3-pyrroidin-1-ylmethyl-benzoyl)-hexahydro-pyrrolo[3,2-b]pyrrol-2-one hydrochloride] | at least 6 hours
20 | 21 | CC(C)[C@H]1C(=O)N(S(C)(=O)=O)[C@H]2CCN(C(=O)c3ccc(CN4CCCCC4)o3)[C@H]12.Cl (relative stereo) [Example 250, rel-(3R,3aR,6aS)-3-Isopropyl-1-methanesulfonyl-4-(5-piperidin-1-ylmethyl-furan-2-carbonyl)-hexahydro-pyrrolo[3,2-b]pyrrol-2-one hydrochloride] | at least 6 hours
21 | 43 | CC(C)[C@H]1C(=O)N(S(C)(=O)=O)[C@H]2CCN(C(=O)c3ccc(CN(C)C)o3)[C@H]12.Cl (relative stereo) [Example 251, rel-(3R,3aR,6aS)-4-(5-Dimethylaminomethyl-furan-2-carbonyl)-3-isopropyl-1-methanesulfonyl-hexahydro-pyrrolo[3,2-b]pyrrol-2-one hydrochloride] | at least 6 hours
22 | 14 | CC(C)[C@H]1C(=O)N(S(C)(=O)=O)[C@H]2CCN(C(=O)c3ccc(CNC4CC4)o3)[C@H]12 (relative stereo) [Example 252, rel-(3R,3aR,6aS)-4-(5-Cyclolpropylaminomethyl-furan-2-carbonyl)-3-isopropyl-1-methanesulfonyl-hexahydro-pyrrolo[3,2-b]pyrrol-2-one hydrochloride] | at least 6 hours

— US6215002A, “Pyrrolopyrrolone derivatives as inhibitors of neutrophil elastase” (priority 1996, dated 2001)
